# Where two headings read alike, the source gives them in different places.
# How the values were obtained:
# [1] = system: Pseudomonas aeruginosa (Pa); assay: Minimum inhibitory concentration (MIC) in nutrient agar; assay type: cell-based, Pseudomonas aeruginosa ATCC 10145; conditions: 48 hours
# Protocol: (§1) The minimum inhibitory concentration (MIC) for the compounds listed in Table I is determined for 9 bacteria, using nutrient agar: and 7 yeast and fungi, using malt yeast agar. A one percent solution of the test compound is prepared in a mixture of acetone and water. Nutrient agar is prepared at pH 6.8, representing a neutral medium, and at pH 8.2, representing an alkaline medium. The nutrient agars are prepared by adding 23 g of nutrient agar to one-liter of deionized water. In addition, the alkaline medium is prepared by adjusting a 0.04M solution of N-[tris-(hydroxymethyl)methyl]-glycine buffered deionized water with concentrated sodium hydroxide to a pH of […]. Malt yeast agar is prepared by adding 3 g yeast extract and 45 g malt agar per liter of deionized water. The specific agar is dispensed in 30 ml aliquots into 25×200 mm test tubes, capped and autoclaved for 15 minutes at 115° C. The test tubes containing the agar are cooled in a water bath until the temperature of the agar is 48° C. Then, an appropriate amount of the one percent solution of the test compound is added (except in the controls where no compound is added) to the respective test tubes so that the final concentrations are 500, 250, 100, 50, 25, 10, 5, 2.5, 1.0 and zero parts per million of the test compound in the agar, thus having a known concentration of test compound dispersed therein. The contents of the test tubes are then transferred to respective petri plates. After drying for 24 hours, the petri plates containing nutrient agar are inoculated with bacteria and those containing malt yeast agar are inoculated with yeast and fungi.
# (§2) The inoculation with bacteria is accomplished by using the following procedure. Twenty-four hour-cultures of each of the bacteria are prepared by incubating the respective bacteria in tubes containing nutrient broth for 24 hours at 30° C. in a shaker. Dilutions of each of the 24 hour-cultures are made so that nine separate suspensions (one for each of the nine test bacteria) are made, each containing 10^8 colony forming units (CFU) per ml of suspension of a particular bacteria. Aliquots of 0.3 ml of each of the bacterial suspensions are used to fill the individual wells of Steer's Replicator. For each microbial suspension, 0.3 ml was used to fill three wells (i.e., three wells of 0.3 ml each) so that for the nine different bacteria, 27 wells are filled. The Steer's Replicator is then used to inoculate both the neutral and alkaline pH nutrient agar petri plates.
# (§3) The inoculated petri plates are incubated at 30° C. for 48 hours and then read to determine if the test compound which is incorporated into the agar prevented growth of the respective bacteria.
# (§4) Table II lists the bacteria, yeast and fungi used in the MIC test described above along with their respective American Type Culture Collection (ATCC) identification numbers.
# Proteus vulgaris (Pv) = assay: as above; assay type: cell-based, Proteus vulgaris ATCC 881; conditions: 48 h
# Protocol: as §1, §2, §3, §4
# [2] = system: Saccharomyces cerevisiae (Sc); assay: Minimum inhibitory concentration (MIC) in malt yeast agar; assay type: cell-based, Saccharomyces cerevisiae ATCC 4105; conditions: malt yeast agar, 30° C., 48 hours for yeast, read-out: Minimum Inhibitory Concentration, Sc
# Protocol: as §1
# (§5) The inoculation with the yeast and fungi is accomplished as follows. Cultures of yeast and fungi are incubated for seven days on malt yeast agar at 30° C. These cultures are used to prepare suspensions by the following procedure. A suspension of each organism is prepared by adding 10 ml of sterile saline and 10 microliters of octylphenoxy polyethoxy ethanol to the agar slant of yeast or fungi. The sterile saline/octylphenoxy polyethoxy ethanol solution is then agitated with a sterile swab to suspend the microorganism grown on the slant. Each resulting suspension is diluted into sterile saline (1 part suspension: 9 parts sterile saline). Aliquots of these dilutions are placed in individual wells of Steer's Replicator and petri plates inoculated as previously described. The petri plates are incubated at 30° C. and read after 48 hours for yeast and 72 hours for fungi.
# as §4
# [3] = system: Klebsiella pneumoniae (Kp); assay: Minimum inhibitory concentration (MIC) in nutrient agar; assay type: cell-based, Klebsiella pneumoniae ATCC 8308
# Protocol: as §1, §2, §3, §4
# [4] = system: Enterobacter aerogenes (Ea); assay: as above; assay type: cell-based, Enterobacter aerogenes ATCC 13048; conditions: Klebsiella aerogenes, 48 h
# Protocol: as §1, §2, §3, §4
# Aspergillus niger (An) = assay: Minimum inhibitory concentration (MIC) in malt yeast agar; assay type: cell-based, Aspergillus niger ATCC 16404; conditions: malt yeast agar; 30° C.; 72 hours for fungi; read-out: Minimum Inhibitory Concentration, An
# Protocol: as §1, §5, §4
# Trichoderma viride (Tv) = assay: as above; assay type: cell-based, Trichoderma viride ATCC 8678; conditions: read-out: Minimum Inhibitory Concentration, Tv
# Protocol: as §1, §5, §4
# [5] = system: Salmonella choleraesuis (Sc); assay: Minimum inhibitory concentration (MIC) in nutrient agar; assay type: cell-based, Salmonella choleraesuis ATCC 10708; conditions: Salmonella enterica, 48 h
# Protocol: as §1, §2, §3, §4
# [6] = system: Pseudomonas aeruginosa (PRD-10); assay: as above; assay type: cell-based, Pseudomonas aeruginosa ATCC 15442; conditions: 48 h
# Protocol: as §1, §2, §3, §4
# Bacillus subtilis (Bs) = assay: as above; assay type: cell-based, Bacillus subtilis ATCC 8473
# Protocol: as §1, §2, §3, §4
# [7] = system: Staphylococcus aureus (Sa); assay: as above; assay type: cell-based, Staphylococcus aureus ATCC 6538
# Protocol: as §1, §2, §3, §4
# Escherichia coli (Ec) = assay: as above; assay type: cell-based, Escherichia coli ATCC 11229; conditions: 48 h
# Protocol: as §1, §2, §3, §4
# [8] = system: Penicillium chrysogenum (Pc); assay: Minimum inhibitory concentration (MIC) in malt yeast agar; assay type: cell-based, Penicillium chrysogenum ATCC 9480; conditions: malt yeast agar; 30° C.; 72 hours for fungi; read-out: Minimum Inhibitory Concentration, Pc
# Protocol: as §1, §5, §4
# Fusarium oxysporum (Fo) = assay: as above; assay type: cell-based, Fusarium oxysporum ATCC 48112; conditions: malt yeast agar; 30° C.; 72 hours for fungi; read-out: Minimum Inhibitory Concentration, Fo
# Protocol: as §1, §5, §4
# Candida albicans (Ca) = assay: as above; assay type: cell-based, Candida albicans ATCC 10231; conditions: malt yeast agar; 30° C.; 48 hours for yeast; read-out: Minimum Inhibitory Concentration, Ca
# Protocol: as §1, §5, §4
# [9] = system: Aureobasidium pullulan (Ap); assay: as above; assay type: cell-based, Aureobasidium pullulan ATCC 16622; conditions: read-out: Minimum Inhibitory Concentration, Ap
# Protocol: as §1, §5, §4
# [10] = pH 6.8, read-out: Minimum Inhibitory Concentration, Pv
# [11] = pH 8.2, read-out: Minimum Inhibitory Concentration, Pv
# [12] = 48 h, pH 8.2, read-out: Minimum Inhibitory Concentration, Kp
# [13] = pH 6.8, nutrient agar, 30° C., 48 hours, read-out: Minimum Inhibitory Concentration, Kp
# [14] = pH 6.8, read-out: Minimum Inhibitory Concentration, Ea
# [15] = pH 8.2, read-out: Minimum Inhibitory Concentration, Ea
# [16] = pH 6.8, read-out: Minimum Inhibitory Concentration, Sc
# [17] = pH 8.2, read-out: Minimum Inhibitory Concentration, Sc
# [18] = pH 6.8, read-out: Minimum Inhibitory Concentration, PRD
# [19] = pH 8.2, read-out: Minimum Inhibitory Concentration, PRD
# [20] = pH 6.8, nutrient agar, 30° C., 48 hours, read-out: Minimum Inhibitory Concentration, Bs
# [21] = 48 h, pH 6.8, read-out: Minimum Inhibitory Concentration, Sa
# [22] = pH 6.8, read-out: Minimum Inhibitory Concentration, Ec
# [23] = pH 8.2, read-out: Minimum Inhibitory Concentration, Ec
# [24] = malt yeast agar, 30° C., 72 hours for fungi
# [25] = 48 h, pH 6.8, read-out: Minimum Inhibitory Concentration, Bs
# [26] = 48 h, pH 8.2, read-out: Minimum Inhibitory Concentration, Bs
# [27] = 48 h, pH 8.2, read-out: Minimum Inhibitory Concentration, Sa
# [28] = pH 6.8, nutrient agar, 30° C., 48 hours, read-out: Minimum Inhibitory Concentration, Sa
SMILES,"MIC ([1]; pH 6.8, 30° C.) [µg/mL]","MIC ([1]; pH 8.2, 30° C.) [µg/mL]",MIC (Proteus vulgaris (Pv); [10]) [µg/mL],MIC (Proteus vulgaris (Pv); [11]) [µg/mL],MIC [2] [µg/mL],"MIC [3, 12] [µg/mL]","MIC [3, 13] [µg/mL]","MIC [4, 14] [µg/mL]","MIC [4, 15] [µg/mL]","MIC [5, 16] [µg/mL]","MIC [5, 17] [µg/mL]","MIC [6, 18] [µg/mL]","MIC [6, 19] [µg/mL]",MIC (Escherichia coli (Ec); [22]) [µg/mL],MIC (Escherichia coli (Ec); [23]) [µg/mL],MIC [8] [µg/mL],MIC (Fusarium oxysporum (Fo)) [µg/mL],MIC (Candida albicans (Ca)) [µg/mL],MIC (Trichoderma viride (Tv); [24]) [µg/mL],MIC (Bacillus subtilis (Bs); [26]) [µg/mL],further results
"COc1ccc2nc3c(nc2c1)SC(C#N)=C(C#N)S3 [J, 7-methoxy-1,4-dithiino-(2,3-b)-quinoxaline-2,3-dicarbonitrile]",> 500,> 500,> 500,> 500,< 10,> 500,> 500,> 500,> 500,> 500,> 500,> 500,> 500,> 500,> 500,25,25,25,–,–,"MIC (Aspergillus niger (An)): 25 µg/mL; MIC (Trichoderma viride (Tv); 72 h): 100 µg/mL; MIC (Bacillus subtilis (Bs); [20]): < 10 µg/mL; MIC (Bacillus subtilis (Bs); pH 8.2, nutrient agar, 30° C., 48 hours, read-out: Minimum Inhibitory Concentration, Bs): 25 µg/mL; MIC [7, 21]: < 10 µg/mL; MIC ([7]; pH 8.2, nutrient agar, 30° C., 48 hours, read-out: Minimum Inhibitory Concentration, Sa): 25 µg/mL"
"N#CC(C#N)=C1Sc2nc3ccc(C#N)cc3nc2S1 [S, 6-cyano-1,3-dithiolo-(4,5-b)-quinoxaline-2-ylidene-propanedinitrile]",> 500,> 500,> 500,> 500,500,> 500,> 500,> 500,> 500,> 500,> 500,> 500,> 500,> 500,> 500,–,500,500,> 500,> 500,"MIC ([9]; malt yeast agar, 30° C., 48 hours for yeast and 72 hours for fungi): 100 µg/mL; MIC (Aspergillus niger (An)): 100 µg/mL; MIC (Bacillus subtilis (Bs); [25]): > 500 µg/mL; MIC [7, 27]: > 500 µg/mL; MIC [7, 28]: > 500 µg/mL"
"N#CC(C#N)=C1Sc2nc3ccc(C(F)(F)F)cc3nc2S1 [T, 6-trifluoromethyl-1,3-dithiolo-(4,5-b)-quinoxaline-2-ylidene-propanedinitrile]",> 500,> 500,> 500,> 500,> 500,> 500,> 500,> 500,> 500,> 500,> 500,> 500,> 500,> 500,> 500,250,> 500,> 500,> 500,> 500,"MIC [9]: 250 µg/mL; MIC (Bacillus subtilis (Bs); [25]): > 500 µg/mL; MIC [7, 27]: > 500 µg/mL; MIC [7, 28]: > 500 µg/mL"
"COc1ccc2nc3c(nc2c1)SC(=C(C#N)C#N)S3 [U, 6-Methoxy-1,3-dithiolo-(4,5-b)-quinoxaline-2-ylidene-propanedinitrile]",> 500,> 500,> 500,> 500,> 500,> 500,> 500,> 500,> 500,> 500,> 500,> 500,> 500,> 500,> 500,> 500,> 500,> 500,> 500,> 500,"MIC (Aspergillus niger (An)): > 500 µg/mL; MIC (Bacillus subtilis (Bs); [25]): > 500 µg/mL; MIC [7, 27]: > 500 µg/mL; MIC [7, 28]: > 500 µg/mL"
"N#CC1=C(C#N)Sc2nc3cc(C(=O)c4ccccc4)ccc3nc2S1 [V, 7-benzoyl-1,4-dithiino-(2,3-b)-quinoxaline-2,3-dicarbonitrile]",> 500,> 500,> 500,> 500,500,> 500,> 500,> 500,> 500,> 500,> 500,> 500,> 500,> 500,> 500,250,500,500,500,> 500,"MIC [9]: 250 µg/mL; MIC (Bacillus subtilis (Bs); [20]): 50 µg/mL; MIC [7, 21]: 50 µg/mL; MIC [7, 27]: > 500 µg/mL"

# Source: patent publication US5200409A, “Composition and use of substituted 1,3-dithiolo-and 1,4-dithiinoquinoxalines as an antimicrobial” (The Dow Chemical Company, priority 1992, dated 1993)
